Source: patent publication US9416144B2, “Benzoxazine oxazolidinone compound, preparation method and application thereof” (priority 2012, dated 2016)
≈ marks a conversion by molar mass, not a printed value.

How the values were obtained:
Test in all cases: In vitro antibacterial activity, MIC by agar double dilution method
Format in all cases: cell-based
Enterococcus (6 strains) = conditions: clinical isolates, 35° C. 16 hrs
Excerpt: (§1) Experimental method: The agar double dilution method (Antimicrob. Agents and Chemother, 40, 1996, 720-726) was used to determine the minimum inhibitory concentration (MIC) of the series of compounds of the invention and the positive control drug linezolid for the test strains. The multipoint inoculation system (Denley A400) was employed to inoculate the bacteria on the agar plate surface with different concentrations of drugs; inoculation amount on each point was about 10^6 CFU/mL. The plates were incubated at 35° C. for 16 hrs before the results were observed. The lowest drug concentration contained in the Petri dish without bacterial growth was used as the minimum inhibitory concentration (MIC value) of the drug fir that strain.
(§2) Test strains: All the test strains were clinically isolated pathogens which were collected from the Nanjing region, and they were re-identified by routine methods before use. 31 strains of the clinically isolated pathogens were chosen, including 6 strains of Enterococcus, 5 Staphylococcus aureus sensitive strains; 5 Staphylococcus epidermidis sensitive strains; 6 Staphylococcus aureus resistant strains; 5 Staphylococcus epidermidis resistant strains; and 4 Streptococcus pneumoniae resistant strains.
(§3) Compounds to be tested were first added 2 ml of DMSO to help them fully dissolved, then added sterile double distilled water to the desired concentration; to all the Petri dish with added drug liquid were added 20 mL MIT medium which was heat-melted to be liquid-like, to make the final drug concentration in the Petri dish to be 64, 32, 16, 8, 4, 2, 1, 0.5, 0.25, 0.125, 0.0625, and 0.031 μg/mL.
(§4) The positive control group was LZ (linezolid, brand name Zyvox, approved by the FDA in 2000 to be firstly sold in the United States, which is the first and also the only one of oxazolidinone antibacterial drugs allowed to enter clinical application).

[1] = tested on: Staphylococcus aureus resistant strains (6 strains); conditions: clinical isolates
Excerpt: as §1, §2, §3, §4

[2] = tested on: Staphylococcus aureus sensitive strains (5 strains); conditions: clinical isolates
Excerpt: as §1, §2, §3, §4

[3] = tested on: Staphylococcus epidermidis resistant strains (5 strains); conditions: clinical isolates
Excerpt: as §1, §2, §3, §4

[4] = tested on: Staphylococcus epidermidis sensitive strains (5 strains); conditions: clinical isolates
Excerpt: as §1, §2, §3, §4

[5] = tested on: Streptococcus pneumoniae resistant strains (4 strains); conditions: clinical isolates
Excerpt: as §1, §2, §3, §4

Row | Structure (SMILES) | MIC (Enterococcus (6 strains)) [µg/mL] | MIC [1] [µg/mL] | MIC [2] [µg/mL] | MIC [3] [µg/mL] | MIC [4] [µg/mL] | MIC [5] [µg/mL]
1 | CC(C)(O)c1ccc(-c2ccc3c(c2)OC[C@H]2[C@H](CO)OC(=O)N32)cn1 [Compound 7, (3R,3aS)-3-(hydroxylmethyl)-7-(6-(2-hydroxylpropyl-2-yl)pyridin-3-yl)-3a,4-dihydrobenzo[b]oxazolo[3,4-d][1,4]oxazin-1(3H)-one] | 4 (≈ 11.2 µM) | 1 to 4 (≈ 2.81 to 11.2 µM) | 1 to 4 (≈ 2.81 to 11.2 µM) | 2 (≈ 5.61 µM) | 1 to 4 (≈ 2.81 to 11.2 µM) | 2 to 4 (≈ 5.61 to 11.2 µM)
2 | CC(O)c1ccc(-c2ccc3c(c2)OC[C@H]2[C@H](CO)OC(=O)N32)cn1 (stereo partly drawn) [Compound 8, (3R,3aS)-7-(6-(1-hydroxylethyl)pyridin-3-yl)-3-(hydroxylmethyl)-3a,4-dihydrobenzo[b]oxazolo[3,4-d][1,4]oxazin-1(3H)-one] | 2 to 4 (≈ 5.84 to 11.7 µM) | 1 to 2 (≈ 2.92 to 5.84 µM) | 1 to 2 (≈ 2.92 to 5.84 µM) | 1 to 2 (≈ 2.92 to 5.84 µM) | 1 (≈ 2.92 µM) | 2 to 4 (≈ 5.84 to 11.7 µM)
3 | O=C1O[C@@H](CO)[C@@H]2COc3cc(-c4ccc(CO)nc4)ccc3N12 [Compound 9, (3R,3aS)-3-(hydroxylmethyl)-7-(6-(hydroxylmethyl)pyridin-3-yl)-3a,4-dihydrobenzo[b]oxazolo[3,4-d][1,4]oxazin-1(3H)-one] | 4 (≈ 12.2 µM) | 1 to 2 (≈ 3.05 to 6.09 µM) | 1 to 2 (≈ 3.05 to 6.09 µM) | 0.5 to 1 (≈ 1.52 to 3.05 µM) | 0.5 (≈ 1.52 µM) | 2 to 4 (≈ 6.09 to 12.2 µM)
4 | O=C1O[C@@H](CO)[C@@H]2COc3cc(-c4ccc(C5(O)CCCC5)nc4)ccc3N12 [Compound 10, (3R,3aS)-7-(6-(1-hydroxylcyclopentyl)pyridin-3-yl)-3-(hydroxylmethyl)-3a,4-dihydrobenzo[b]oxazolo[3,4-d][1,4]oxazin-1(3H)-one] | 2 to 4 (≈ 5.23 to 10.5 µM) | 1 to 2 (≈ 2.61 to 5.23 µM) | 2 (≈ 5.23 µM) | 1 to 2 (≈ 2.61 to 5.23 µM) | 1 to 2 (≈ 2.61 to 5.23 µM) | 2 (≈ 5.23 µM)
5 | CN1CCN(c2ccc(-c3ccc4c(c3)OC[C@H]3[C@H](CO)OC(=O)N43)cn2)CC1 [Compound 12, (3R,3aS)-3-(hydroxylmethyl)7-(6-(4-methylpiperazin-1-yl)pyridin-3-yl)-3a,4-dihydrobenzo[b]oxazolo[3,4-d][1,4]oxazin-1(3H)-one] | 2 to 4 (≈ 5.04 to 10.1 µM) | 4 to 8 (≈ 10.1 to 20.2 µM) | 2 to 4 (≈ 5.04 to 10.1 µM) | 4 (≈ 10.1 µM) | 2 to 4 (≈ 5.04 to 10.1 µM) | 4 (≈ 10.1 µM)
6 | Cn1nnc(-c2ccc(-c3ccc4c(c3)OC[C@H]3[C@H](CO)OC(=O)N43)cn2)n1 [Compound 17, (3R,3aS)-3-(hydroxylmethyl)-7-(6-(2-methyl-2H-tetrazol-5-yl)pyridin-3-yl)-3a,4-dihydrobenzo[b]oxazolo[3,4-d][1,4]oxazin-1(3H)-one] | 4 (≈ 10.5 µM) | 1 to 2 (≈ 2.63 to 5.26 µM) | 1 to 4 (≈ 2.63 to 10.5 µM) | 1 to 2 (≈ 2.63 to 5.26 µM) | 1 to 2 (≈ 2.63 to 5.26 µM) | 1 to 2 (≈ 2.63 to 5.26 µM)
7 | O=C1COCCN1c1ccc(-c2ccc3c(c2)OC[C@H]2[C@H](CO)OC(=O)N32)cn1 [Compound 19, (3R,3aS)-3-(hydroxylmethyl)-7-(6-(3-oxomorpholin)pyridin-3-yl)-3a,4-dihydrobenzo[b]oxazolo[3,4-d][1,4]oxazin-1(3H)-one] | 2 to 4 (≈ 5.03 to 10.1 µM) | 2 to 4 (≈ 5.03 to 10.1 µM) | 2 to 4 (≈ 5.03 to 10.1 µM) | 2 to 4 (≈ 5.03 to 10.1 µM) | 1 to 2 (≈ 2.52 to 5.03 µM) | 2 to 4 (≈ 5.03 to 10.1 µM)
8 | CN1CCN(c2ccc(-c3ccc4c(c3)OC[C@H]3[C@H](CO)OC(=O)N43)cn2)C(=O)C1 [Compound 20, (3R,3aS)-3-(hydroxylmethyl)-7-(6-(4-methyl-2-oxopiperazin-1-yl)pyridin-3-yl)-3a,4-dihydrobenzo[b]oxazolo[3,4-d][1,4]oxazin-1(3H)-one] | 16 to 32 (≈ 39 to 78 µM) | 2 to 4 (≈ 4.87 to 9.75 µM) | 2 to 4 (≈ 4.87 to 9.75 µM) | 2 to 4 (≈ 4.87 to 9.75 µM) | 2 to 4 (≈ 4.87 to 9.75 µM) | 4 to 8 (≈ 9.75 to 19.5 µM)
9 | CN1C[C@H](c2ccc(-c3ccc4c(c3)OC[C@H]3[C@H](CO)OC(=O)N43)cn2)OC1=O [Compound 28, (3R,3aS)-3-(hydroxylmethyl)-7-(6-((S)-3-methyl-2-oxazolidin-5-yl)pyridin-3-yl)-3a,4-dihydrobenzo[b]oxazolo[3,4-d][1,4]oxazin-1(3H)-one] | 2 (≈ 5.03 µM) | 2 (≈ 5.03 µM) | 2 (≈ 5.03 µM) | 1 to 2 (≈ 2.52 to 5.03 µM) | 2 (≈ 5.03 µM) | 2 (≈ 5.03 µM)
10 | NC1(c2ccc(-c3ccc4c(c3)OC[C@H]3[C@H](CO)OC(=O)N43)cn2)CC1 [Compound 29, (3R,3aS)-7-(6-(1-aminocyclopropyl)pyridin-3-yl)-3-(hydroxylmethyl)-3a,4-dihydrobenzo[b]oxazolo[3,4-d][1,4]oxazin-1(3H)-one] | 2 (≈ 5.66 µM) | 1 (≈ 2.83 µM) | 2 to 4 (≈ 5.66 to 11.3 µM) | 1 to 2 (≈ 2.83 to 5.66 µM) | 1 (≈ 2.83 µM) | 1 to 2 (≈ 2.83 to 5.66 µM)
11 | NCc1ccc(-c2ccc3c(c2)OC[C@H]2[C@H](CO)OC(=O)N32)cn1 [Compound 30, (3R,3aS)-7-(6-(aminomethyl)pyridin-3-yl)-3-(hydroxylmethyl)-3a,4-dihydrobenzo[b]oxazolo[3,4-d][1,4]oxazin-1(3H)-one] | 4 to 8 (≈ 12.2 to 24.4 µM) | 2 to 4 (≈ 6.11 to 12.2 µM) | 2 to 4 (≈ 6.11 to 12.2 µM) | 0.5 to 4 (≈ 1.53 to 12.2 µM) | 1 to 2 (≈ 3.05 to 6.11 µM) | 4 to 16 (≈ 12.2 to 48.9 µM)
12 | O=C1CNCCN1c1ccc(-c2ccc3c(c2)OC[C@H]2[C@H](CO)OC(=O)N32)cn1 [Compound 31, (3R,3aS)-3-(hydroxylmethyl)-7-(6-(2-oxopiperazin-1-yl)pyridin-3-yl)-3a,4-dihydrobenzo[b]oxazolo[3,4-d][1,4]oxazin-1(3H)-one] | 16 (≈ 40.4 µM) | 2 to 4 (≈ 5.05 to 10.1 µM) | 2 to 4 (≈ 5.05 to 10.1 µM) | 2 to 4 (≈ 5.05 to 10.1 µM) | 2 to 4 (≈ 5.05 to 10.1 µM) | 4 (≈ 10.1 µM)

The remaining lines, values ahead:

Row | MIC (Enterococcus (6 strains)) [µg/mL] | MIC [1] [µg/mL] | MIC [2] [µg/mL] | MIC [3] [µg/mL] | MIC [4] [µg/mL] | MIC [5] [µg/mL] | Structure (SMILES)
13 | 2 (≈ 5.43 µM) | 1 to 2 (≈ 2.71 to 5.43 µM) | 1 (≈ 2.71 µM) | 1 (≈ 2.71 µM) | 0.5 to 1 (≈ 1.36 to 2.71 µM) | 1 to 2 (≈ 2.71 to 5.43 µM) | O=C1O[C@@H](CO)[C@@H]2COc3cc(-c4ccc(C(O)C5CC5)nc4)ccc3N12 (stereo partly drawn) [Compound 6, (3R,3aS)-7-(6-(cyclopropyl(hydroxyl)methyl)pyridin-3-yl)-3-(hydroxyl-methyl)-3a,4-dihydrobenzo[b]oxazolo[3,4-d][1,4]oxazin-1(3H)-one]
14 | 1 to 2 (≈ 2.35 to 4.7 µM) | 1 to 2 (≈ 2.35 to 4.7 µM) | 1 to 2 (≈ 2.35 to 4.7 µM) | 2 to 4 (≈ 4.7 to 9.4 µM) | 1 to 2 (≈ 2.35 to 4.7 µM) | 2 (≈ 4.7 µM) | CC(C)N1CC(c2ccc(-c3ccc4c(c3)OC[C@H]3[C@H](CO)OC(=O)N43)cn2)OC1=O (stereo partly drawn) [Compound 15, (3R,3aS)-3-(hydroxylmethyl)-7-(6-(3-isopropyl-2-oxazolidin-5-yl)pyridin-3-yl)-3a,4-dihydrobenzo[b]oxazolo[3,4-d][1,4]oxazin-1(3H)-one]
15 | 1 to 2 (≈ 2.11 to 4.22 µM) | 1 to 2 (≈ 2.11 to 4.22 µM) | 1 to 2 (≈ 2.11 to 4.22 µM) | 2 to 4 (≈ 4.22 to 8.45 µM) | 1 to 2 (≈ 2.11 to 4.22 µM) | 2 (≈ 4.22 µM) | O=C1OC(c2ccc(-c3ccc4c(c3)OC[C@H]3[C@H](CO)OC(=O)N43)cn2)CN1Cc1ccccc1 (stereo partly drawn) [Compound 16, (3R,3aS)-7-(6-(3-benzyl-2-oxazolidin-5-yl)pyridin-3-yl)-3-(hydroxylmethyl)-3a,4-dihydrobenzo[b]oxazolo[3,4-d][1,4]oxazin-1(3H)-one]
16 | 0.5 to 1 (≈ 1.21 to 2.42 µM) | 0.5 to 1 (≈ 1.21 to 2.42 µM) | 0.5 to 1 (≈ 1.21 to 2.42 µM) | 0.5 to 1 (≈ 1.21 to 2.42 µM) | 0.25 to 0.5 (≈ 0.605 to 1.21 µM) | 1 (≈ 2.42 µM) | O=C1OC(CO)CN1c1ccc(-c2ccc3c(c2)OC[C@H]2[C@H](CO)OC(=O)N32)cn1 (stereo partly drawn) [Compound 24, (3R,3aS)-3-(hydroxylmethyl)-7-(6-(5-(hydroxylmethyl)-2-oxooxazolidin-3-yl)pyridin-3-yl)-3a,4-dihydrobenzo[b]oxazolo[3,4-d][1,4]oxazin-1(3H)-one]
17 | 0.5 to 1 (≈ 1.21 to 2.42 µM) | 0.5 to 1 (≈ 1.21 to 2.42 µM) | 0.5 to 1 (≈ 1.21 to 2.42 µM) | 0.5 to 1 (≈ 1.21 to 2.42 µM) | 0.5 to 1 (≈ 1.21 to 2.42 µM) | 1 (≈ 2.42 µM) | O=C1O[C@H](CO)CN1c1ccc(-c2ccc3c(c2)OC[C@H]2[C@H](CO)OC(=O)N32)cn1 [Compound 25, (3R,3S)-3-(hydroxylmethyl)-7-(6-((S)-5-(hydroxylmethyl)-2-oxooxazolidin-3-yl)pyridin-3-yl)-3a,4-dihydrobenzo[b]oxazolo[3,4-d][1,4]oxazin-1(3H)-one]
18 | 0.5 to 1 (≈ 1.21 to 2.42 µM) | 0.5 to 1 (≈ 1.21 to 2.42 µM) | 0.5 to 1 (≈ 1.21 to 2.42 µM) | 0.5 to 1 (≈ 1.21 to 2.42 µM) | 0.5 to 1 (≈ 1.21 to 2.42 µM) | 1 (≈ 2.42 µM) | O=C1O[C@@H](CO)CN1c1ccc(-c2ccc3c(c2)OC[C@H]2[C@H](CO)OC(=O)N32)cn1 [Compound 26, (3R,3aS)-3-(hydroxylmethyl)-7-(6-((R)-5-(hydroxylmethyl)-2-oxo-oxazolidin-3-yl)pyridin-3-yl)-3a,4-dihydrobenzo[b]oxazolo[3,4-d][1,4]oxazin-1(3H)-one]
19 | 1 (≈ 2.52 µM) | 1 (≈ 2.52 µM) | 1 (≈ 2.52 µM) | 0.5 to 1 (≈ 1.26 to 2.52 µM) | 1 (≈ 2.52 µM) | 0.25 to 0.5 (≈ 0.629 to 1.26 µM) | CN1C[C@@H](c2ccc(-c3ccc4c(c3)OC[C@H]3[C@H](CO)OC(=O)N43)cn2)OC1=O [Compound 27, (3R,3aS)-3-(hydroxylmethyl)-7-(6-((R)-3-methyl-2-oxazolidin-5-yl)pyridin-3-yl)-3a,4-dihydrobenzo[b]oxazolo[3,4-d][1,4]oxazin-1(3H)-one]
